# Experimental data: patent US20230382926A1, “COMPOUNDS AND USES THEREOF” (The University of The West Indies, priority 2022, published 2023)
# Columns and labels:
# Assay in all cases: Rescue concentration, modified checkerboard MIC adjuvant assay
# Format in all cases: cell-based
# [1] = test system: Klebsiella pneumoniae ATCC BAA-2814; settings: K. pneumoniae ATCC BAA-2814
# Description: (§1) Reference microorganisms as well as clinical strains used to evaluate the antimicrobial adjuvant properties of SP-6azaBIM 125 and SP-6azaBIM 136 are listed in Table 3. Clinical strains of bacteria were kindly provided by the Faculty of Medical Sciences, UWI, St. Augustine, Trinidad. All bacterial cultures were cryopreserved in 30% glycerol/Brain Heart Infusion (BHI) at −80° C. Cultures were revived on BHI agar (Oxoid Ltd, England) and maintained at 4° C. until needed.
# (§2) Prior to each experiment, cultures were streaked onto clean BHI agar plates and incubated at 35° C. for 24 hours. Colonies of the respective cultures were selected and inoculated in phosphate buffer saline (pH 7.5) to a 0.5 McFarland turbidity standard (equivalent to 10^8 CFU mL^−1). For inhibitory studies the bacterial suspensions were diluted 1:100 in cation-adjusted Mueller Hinton Broth (ca-MHB) (Oxoid Ltd, England). Fastidious bacteria including Streptococcus pneumoniae, Haemophilus infuenzae and Clostridium difficile were maintained on BHI agar with 5% defibrinated sheep blood and diluted in ca-MHB with 5% defibrinated sheep blood.
# (§3) Antibiotic powders used in this study were purchased from Sigma Aldrich Ltd. (WI, USA). Antibiotic stock solutions were made at 50 mg mL^−1 according to Andrews (2001) and working solutions were prepared 24 h before use and stored at 4° C.
# (§4) HCl salts of the of the SP-azaBIM test compounds were prepared prior to testing and stored at 4° C. Working preparations of each compound were made to 1 mg/mL in sterile deionised water.
# (§5) The antibiotic adjuvant activity of the SPazaBIMs were evaluated in combination with representative antibiotics (representing 13 antibiotic classes) against the 19 pathogens strains listed in Table 3. To assess the adjuvant properties of the SP-azaBIM molecules, a modified checkerboard minimum inhibitory concentration assay was used. A fixed concentration of the respective antibiotic (susceptible breakpoint concentration) was mixed with a twofold dilution series of the test SP-azaBIM (FIG. 1). This was to determine the concentration of SP-azaBIM needed potentiate the antibiotic at a clinically susceptible breakpoint concentration. Antibiotic susceptible breakpoint concentrations for the respective bacteria were determined using Clinical Laboratory Standards Institute (CLSI) criteria M100 ED31.
# (§6) In this study, only those antibiotics to which the bacterial was classed as resistant were included in the adjuvant assays. In this assay we recorded the rescue concentration of the SP-BIM for a respective antibiotic. The rescue concentration was defined as the concentration of the adjuvant that reduces the minimum inhibitory concentration (MIC) of an antibiotic to the susceptibility breakpoint.
# (§7) Immediately prior to testing, the respective antibiotic and SP-azaBIM was dissolved in sterile deionised water at 20× the required test concentration. Each microtiter well was then inoculated with 180 μl of bacterial inoculum of 10^6 CFU/ml in ca-MHB, and 10 μl each if the antibiotic and SP-azaBIM was added to the plates. These plates were then incubated at 35° C. for 24 h under aerobic conditions. A similar method was followed for the fastidious pathogens except that they were cultured in ca-MHB with 5% sheep blood and 5% CO2.
# (§8) Bacterial growth was visually inspected after the incubation period and the rescue concentration of the test SP-azaBIM was determined as the lowest concentration of the compound needed to reduce bacterial growth by 99.99% at the susceptible breakpoint concentration of the antibiotic. For example, CLSI states that Pseudomonas aeruginosa is susceptible to the Imipenem if the MIC is ≤2 μg mL^−1. If the bacteria can tolerate this concentration in vitro, then the bacteria has an intermediate or absolute resistance toward that antibiotic. […]
# [2] = test system: Staphylococcus aureus ATCC BAA-2312; settings: S. aureus ATCC BAA-2312
# Description: as §1, §2, §3, §4, §5, §6, §7, §8
# [3] = test system: Stenotrophomonas maltophilia MDR 7785; settings: S. maltophilia MDR 7785
# Description: as §1, §2, §3, §4, §5, §6, §7, §8
# [4] = test system: Streptococcus pneumoniae ATCC 49619; settings: S. pneumoniae ATCC 49619
# Description: as §1, §2, §3, §4, §5, §6, §7, §8
# [5] = test system: Acinetobacter baumannii clinical isolate 9978; settings: A. baumannii clinical isolate 9978
# Description: as §1, §2, §3, §4, §5, §6, §7, §8
# [6] = test system: Enterococcus faecalis ATCC 51299; settings: E. faecalis ATCC 51299
# Description: as §1, §2, §3, §4, §5, §6, §7, §8
# [7] = test system: Escherichia coli ATCC 35150; settings: E. coli ATCC 35150
# Description: as §1, §2, §3, §4, §5, §6, §7, §8
# [8] = test system: Enterobacter cloacae ATCC BAA-1143; settings: E. cloacae ATCC BAA-1143
# Description: as §1, §2, §3, §4, §5, §6, §7, §8
# [9] = Amox at susceptible breakpoint 8 μg mL^−1
# [10] = Amp at susceptible breakpoint 8 μg mL^−1
# [11] = Azi at susceptible breakpoint 16 μg mL^−1
# [12] = Ceph at susceptible breakpoint 8 μg mL^−1
# [13] = Chl at susceptible breakpoint 8 μg mL^−1
# [14] = Col at susceptible breakpoint 8 μg mL^−1
# [15] = Dox at susceptible breakpoint 4 μg mL^−1
# [16] = Gen at susceptible breakpoint 4 μg mL^−1
# [17] = Imi at susceptible breakpoint 1 μg mL^−1
# [18] = Tet at susceptible breakpoint 4 μg mL^−1
# [19] = Tri at susceptible breakpoint 8 μg mL^−1
# [20] = Cef at susceptible breakpoint 8 μg mL^−1
# [21] = Imi at susceptible breakpoint 2 μg mL^−1
# [22] = Mero at susceptible breakpoint 2 μg mL^−1
smiles,measurement,setting,value
"Oc1ccc(C(c2c[nH]c3cnccc23)c2c[nH]c3cnccc23)cc1 [SP-6azaBIM 136, 4-(bis(1H-pyrrolo[2,3-c]pyridin-3-yl)methyl)phenol]","Rescue concentration, Amox (8)",[1]; [9],16 µg/mL
same,"Rescue concentration, Amp (8)",[1]; [10],32 µg/mL
same,"Rescue concentration, Aze (4)",[1]; Aze at susceptible breakpoint 4 μg mL^−1,4 µg/mL
same,"Rescue concentration, Azi (16)",[1]; [11],16 µg/mL
same,"Rescue concentration, Cef (16)",[1]; Cef at susceptible breakpoint 16 μg mL^−1,8 µg/mL
same,"Rescue concentration, Ceph (8)",[1]; [12],16 µg/mL
same,"Rescue concentration, Chl (8)",[1]; [13],32 µg/mL
same,"Rescue concentration, Col (8)",[1]; [14],16 µg/mL
same,"Rescue concentration, Dox (4)",[1]; [15],4 µg/mL
same,"Rescue concentration, Gen (4)",[1]; [16],4 µg/mL
same,"Rescue concentration, Imi (1)",[1]; [17],4 µg/mL
same,"Rescue concentration, Tet (4)",[1]; [18],4 µg/mL
same,"Rescue concentration, Azi (2)",[2]; Azi at susceptible breakpoint 2 μg mL^−1,>128 µg/mL
same,"Rescue concentration, Gen (4)",[2]; [16],>128 µg/mL
same,"Rescue concentration, Pen (0.12)",[2]; Pen at susceptible breakpoint 0.12 μg mL^−1,>128 µg/mL
same,"Rescue concentration, Tri (8)",[2]; [19],>128 µg/mL
same,"Rescue concentration, Van (2)",[2]; Van at susceptible breakpoint 2 μg mL^−1,128 µg/mL
same,"Rescue concentration, Cef (8)",[3]; [20],32 µg/mL
same,"Rescue concentration, Ceph (8)",[3]; [12],64 µg/mL
same,"Rescue concentration, Chl (8)",[3]; [13],16 µg/mL
same,"Rescue concentration, Cip (2)",[3]; Cip at susceptible breakpoint 2 μg mL^−1,16 µg/mL
same,"Rescue concentration, Gen (4)",[3]; [16],64 µg/mL
same,"Rescue concentration, Imi (2)",[3]; [21],32 µg/mL
same,"Rescue concentration, Mero (2)",[3]; [22],32 µg/mL
same,"Rescue concentration, Tri (2)",[3]; Tri at susceptible breakpoint 2 μg mL^−1,>128 µg/mL
same,"Rescue concentration, Amox (2)",[4]; Amox at susceptible breakpoint 2 μg mL^−1,>128 µg/mL
same,"Rescue concentration, Ery (0.25)",[4]; Ery at susceptible breakpoint 0.25 μg mL^−1,>128 µg/mL
same,"Rescue concentration, Imi (0.12)",[4]; Imi at susceptible breakpoint 0.12 μg mL^−1,>128 µg/mL
same,"Rescue concentration, Amox (8)",[5]; [9],16 µg/mL
same,"Rescue concentration, Cef (8)",[5]; [20],32 µg/mL
same,"Rescue concentration, Col (2)",[5]; Col at susceptible breakpoint 2 μg mL^−1,64 µg/mL
same,"Rescue concentration, Gen (4)",[5]; [16],16 µg/mL
same,"Rescue concentration, Imi (2)",[5]; [21],2 µg/mL
same,"Rescue concentration, Mero (2)",[5]; [22],32 µg/mL
same,"Rescue concentration, Pol B (2)",[5]; Pol B at susceptible breakpoint 2 μg mL^−1,64 µg/mL
same,"Rescue concentration, Amp (8)",[6]; [10],>128 µg/mL
same,"Rescue concentration, Chl (8)",[6]; [13],>128 µg/mL
same,"Rescue concentration, Dox (4)",[6]; [15],>128 µg/mL
same,"Rescue concentration, Ery (0.5)",[6]; Ery at susceptible breakpoint 0.5 μg mL^−1,>128 µg/mL
same,"Rescue concentration, Tri (8)",[6]; [19],>128 µg/mL
same,"Rescue concentration, Van (4)",[6]; Van at susceptible breakpoint 4 μg mL^−1,>128 µg/mL
same,"Rescue concentration, Amp (8)",[7]; [10],8 µg/mL
same,"Rescue concentration, Cip (0.25)",[7]; Cip at susceptible breakpoint 0.25 μg mL^−1,16 µg/mL
same,"Rescue concentration, Dox (4)",[7]; [15],4 µg/mL
same,"Rescue concentration, Imi (1)",[7]; [17],4 µg/mL
same,"Rescue concentration, Amp (8)",[8]; [10],16 µg/mL
same,"Rescue concentration, Azi (16)",[8]; [11],16 µg/mL
same,"Rescue concentration, Ceph (8)",[8]; [12],16 µg/mL
same,"Rescue concentration, Chl (8)",[8]; [13],32 µg/mL
same,"Rescue concentration, Col (8)",[8]; [14],16 µg/mL
same,"Rescue concentration, Dox (4)",[8]; [15],4 µg/mL
same,"Rescue concentration, Gen (4)",[8]; [16],8 µg/mL
same,"Rescue concentration, Imi (1)",[8]; [17],4 µg/mL
same,"Rescue concentration, Tet (4)",[8]; [18],4 µg/mL
